According to patent publication US20160000737A1, “TREATMENT OF PETS WITH SIRTUIN ACTIVATORS” (NUSIRT SCIENCES, INC., priority 2013, published 2016):
Marks after values point to notes of the source that are not given here.

Experiments:
diet-induced obese mice [1] = assay: Diet-induced obese mice on resveratrol/HMB/leucine diets: body weight, weight gain, adiposity; assay type: in vivo, c57/BL6 mice
Source text: Six week old male c57/BL6 mice were fed a high-fat diet with fat increased to 45% of energy (Research Diets D12451) for 6 weeks to induce obesity. At the end of this obesity induction period, animals were randomly divided into the following seven different diet treatment groups with 10 animals per group (overall 70 animals) and maintained on these diets for 6 weeks:
Group 1 (labeled “control group”): high-fat diet only (same as in obesity induction period (Research Diets D12451)).
This diet was modified for groups 2 to 7 in the following way:
Group 2 (labeled “low dose resveratrol”): high-fat diet mixed with 12.5 mg resveratrol/kg diet.
Group 3 (labeled “high dose resveratrol”): high-fat diet mixed with 225 mg resveratrol/kg diet.
Group 4 (labeled “low dose HMB”): high-fat diet mixed with 2 g of the calcium salt of hydroxymethylbutyrate, a naturally occurring metabolite of leucine (CaHMB).
Group 5 (labeled “low dose resveratrol plus low dose CaHMB”): high fat-diet mixed with 12.5 mg of resveratrol/kg diet and 2 g CaHMB/kg diet.
Group 6 (labeled “low dose resveratrol plus high dose HMB”): high fat-diet mixed with 12.5 mg of resveratrol/kg diet and 10 g CaHMB/kg diet.
The animals were housed in polypropylene cages at a room temperature of 22±2° C. and regime of 12 h light/dark cycle. The animals had free access to water and their experimental food throughout the experiment. […]

diet-induced obese mice [2] = assay: microPET/CT glucose and palmitate uptake; assay type: in vivo, c57/BL6 mice; conditions: 6 weeks
Method: at the end of the treatment period (6 weeks of treatment) subgroups of each treatment diet group (5 animals/group, 35 animals total) were used to measure whole body glucose and palmitate uptake via PET/CT Imaging. To visualize these compounds using microPET imaging, the glucose or palmitate was labeled with fluorine-18 (108 mins half life) or carbon-11 (20 mins half life), respectively. Each mouse was fasted for 4 hours, then anesthetized using 1-3% isoflurane delivered by nose cone or in a mouse-sized induction chamber purpose-built for small animal imaging protocols. While under anesthesia the mice were injected iv with <2 mCi of each tracer, then be left for a period of time (minutes to up˜1 hour) to allow the uptake of the tracer. During the scan, mice were kept warm using a thermostatically controlled heated bed and were treated with ophthalmic ointment prior to scanning Following the live scan the mice were returned to their cage and revived. Mice were monitored constantly during this time. Following live data acquisition the mice were sacrificed by isoflurane overdose and organs harvested for further experiments.

diet-induced obese mice [3] = assay: Oxygen consumption/substrate utilization in metabolic chambers (CLAMS); assay type: in vivo, c57/BL6 mice
Method: at the end of the obesity induction period (day 0 of treatment group) and at 2 weeks and 6 weeks of treatment, oxygen consumption and substrate utilization was measured via metabolic chambers using the Comprehensive Lab Animal Monitoring Systems (CLAMS, Columbus Instruments, Columbus, Ohio) in subgroups of each treatment group. Each animal was placed in individual cages without bedding that allow automated, non-invasive data collection. Each cage is an indirect open circuit calorimeter that provides measurement of oxygen consumption, carbon dioxide production, and concurrent measurement of food intake. All mice were acclimatized to the chambers for 24 hours prior to the experiment and maintained under the regular 12:12 light:dark cycle with free access to water and food. All experiments were started in the morning and data were collected for 24 hours. Each chamber was passed with 0.61 of air/min and was sampled for 2 min at 32-minute intervals. Exhaust O2 and CO2 content from each chamber was compared with ambient O2 and CO2 content. Food consumption was measured by electronic scales.

diet-induced obese mice [4] = assay: Indices of insulin sensitivity (plasma glucose, insulin, HOMAIR); assay type: in vivo, c57/BL6 mice; conditions: resveratrol at either dose, HMB, each alone
Method: Insulin sensitivity can be measured using a variety of techniques, including HOMAIR. HOMAIR, which is the homeostasis model assessment of insulin resistance can be used as a screening index of changes in insulin sensitivity. HOMAIR can be calculated via standard formula from fasting plasma insulin and glucose as follows: HOMAIR=[Insulin (uU/mL)×glucose (mM)]/22.5.
(§1) The animals were housed in polypropylene cages at a room temperature of 22±2° C. and regime of 12 h light/dark cycle. The animals had free access to water and their experimental food throughout the experiment. At the of the treatment period (6 weeks) all animals were humanely euthanized, and blood and tissues collected for further experiments.

SIRT1 = biological target: T1, SIRT1 (Mus musculus, UniProt Q923E4); assay: Adipose tissue SIRT1 activity (SIRT1 Fluorimetric Drug Discovery Kit); assay type: in vivo, c57/BL6 mice
T1 construct: effects of dietary treatments on adipose tissue Sirt1 activity; from tissue; host or cells: mouse adipose tissue
T1 sequence (Q923E4 1-737): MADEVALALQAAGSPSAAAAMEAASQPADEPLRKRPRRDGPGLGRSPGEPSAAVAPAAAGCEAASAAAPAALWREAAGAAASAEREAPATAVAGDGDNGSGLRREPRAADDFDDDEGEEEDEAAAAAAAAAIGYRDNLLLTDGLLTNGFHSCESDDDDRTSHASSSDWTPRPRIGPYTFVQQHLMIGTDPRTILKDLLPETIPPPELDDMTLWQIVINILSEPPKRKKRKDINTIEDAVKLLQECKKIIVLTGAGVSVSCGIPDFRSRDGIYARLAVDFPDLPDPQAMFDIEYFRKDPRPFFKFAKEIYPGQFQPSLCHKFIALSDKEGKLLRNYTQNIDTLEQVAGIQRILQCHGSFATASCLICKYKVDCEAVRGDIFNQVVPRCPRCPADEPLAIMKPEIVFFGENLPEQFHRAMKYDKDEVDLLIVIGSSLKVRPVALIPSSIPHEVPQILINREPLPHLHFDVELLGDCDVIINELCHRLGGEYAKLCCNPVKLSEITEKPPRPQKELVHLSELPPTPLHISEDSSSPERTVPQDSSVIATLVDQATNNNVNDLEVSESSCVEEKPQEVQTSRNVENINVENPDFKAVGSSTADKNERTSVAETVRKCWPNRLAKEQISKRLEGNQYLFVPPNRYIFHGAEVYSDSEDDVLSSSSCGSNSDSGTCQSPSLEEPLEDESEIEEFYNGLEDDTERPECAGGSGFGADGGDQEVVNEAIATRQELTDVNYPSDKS
Method: SIRT1 activity was measured by using the SIRT1 Fluorimetric Drug Discovery Kit (BML-AK555, ENZO Life Sciences International, Inc. PA, USA). In this assay, SIRT1 activity is assessed by the degree of deacetylation of a standardized substrate containing an acetylated lysine side chain. The substrate utilized is a peptide containing amino acids 379-382 of human p53 (Arg-His-Lys-Lys[Ac]), an established target of SIRT1 activity; SIRT1 activity is directly proportional to the degree of deacetylation of Lys-382. Samples were incubated with peptide substrate (25 μM), and NAD^+ (500 μM) in a phosphate-buffered saline solution at 37° C. on a horizontal shaker for 45 minutes. The reaction was stopped with the addition of 2 mM nicotinamide and a developing solution that binds to the deacetylated lysine to form a fluorophore. Following 10 minutes incubation at 37° C., fluorescence was read in a plate-reading fluorometer at an excitation wavelength of 360 nm and an emission wavelength of 450 nm. Resveratrol ([…]) served as a SIRT1 activator and suramin sodium (25 mM) as a SIRT1 inhibitor; wells including each were utilized as positive and negative controls in each set of reactions. A standard curve was constructed using deacetylated substrate (0-10 μM). Data was normalized to cellular protein concentration measured via BCA-assay.

[5] = test system: inflammatory biomarkers (C-reactive protein, IL-6, MCP-1, adiponectin); assay: Inflammatory biomarkers in diet-induced obese mice; assay type: in vivo, c57/BL6 mice; conditions: for Adiponectin / C-reactive protein / IL-6 / MCP-1: 6 weeks
Method: as §1

[6] = Circulating level after dosing; assay type: in vivo
[7] = high dose: 225 mg resveratrol/kg diet
[8] = low dose: 12.5 mg resveratrol/kg diet

## Oc1ccc(/C=C/c2cc(O)cc(O)c2)cc1 [Resveratrol, 3,5,4′-Trihydroxy-trans-stilbene]
diet-induced obese mice [1]; high dose resveratrol
  effect on body weight, weight gain, or visceral adipose tissue mass: no significant effect
diet-induced obese mice [1]; low doses, each alone
  effect on body weight, weight gain, visceral adipose tissue mass, fat oxidation, respiratory exchange ratio (RER), or heat production: no significant independent effect
diet-induced obese mice [2]; [7]
  Muscle Glucose Uptake (18F-deoxyglucose SUV): 3.87 ± 0.32^a SUV
diet-induced obese mice [2]; [8]
  Muscle Glucose Uptake (18F-deoxyglucose SUV): 3.63 ± 1.29^a SUV
diet-induced obese mice [3]; high dose of resveratrol
  RER: decreased
  heat production and skeletal muscle fat oxidation: significantly increased
diet-induced obese mice [3]; [7]
  Respiratory Exchange Ratio (24 hr RER): 0.825 ± 0.007^b
diet-induced obese mice [3]; [8]
  Respiratory Exchange Ratio (24 hr RER): 0.847 ± 0.008^a
diet-induced obese mice [4]
  effect on plasma insulin or on muscle glucose uptake: Neither resveratrol at either dose nor HMB exerted any significant effect
SIRT1; high dose resveratrol
  adipose tissue Sirt1 activity: non-significant trend towards an increase
SIRT1; resveratrol or HMB alone
  adipose tissue Sirt1 activity: Neither resveratrol nor HMB exerted significant independent effects
[5]; HMB or low dose of resveratrol alone
  effect on MCP-1 or c-reactive protein: neither HMB nor a low dose of resveratrol exerted any effect
[5]; high dose of resveratrol
  circulating IL-6: significantly reduced
[5]; [7]
  Adiponectin: 14.8 ± 1.8^b ng/mL
  C-reactive protein: 123.9 ± 35.3^a ng/mL
  IL-6: 14.1 ± 1.3^b pg/mL
  MCP-1: 27.3 ± 6.8^b pg/mL
[5]; low dose of resveratrol alone
  circulating IL-6: no independent effect
[5]; [8]
  Adiponectin: 12.4 ± 1.1 ng/mL
  C-reactive protein: 134.8 ± 8.5^a ng/mL
  IL-6: 23.2 ± 2.9^a pg/mL
  MCP-1: 104.4 ± 16.5^a pg/mL
[6]; oral dosing of about 10 mg, subject about 30 lb
  circulating level of resveratrol: about 200 nM
[6]; oral dosing of about 50 mg, subject about 150 lb
  circulating level of resveratrol: about 200 nM
[6]; oral dosing of about 220 mg, subject about 30 lb
  circulating level of resveratrol: about 0.5 mM
[6]; oral dosing of about 1100 mg, subject about 150 lb
  circulating level of resveratrol: about 0.5 mM

## CC(C)C[C@H](N)C(=O)O [leucine, L-leucine]
[6]; dosing of about 60 mg leucine, subject weighing about 30 lb
  circulating level of leucine: about 0.25 mM
[6]; dosing of about 225 mg leucine, subject weighing about 30 lb
  circulating level of leucine: about 0.5 mM
[6]; dosing of about 300 mg leucine, subject weighing about 150 lb
  circulating level of leucine: about 0.25 mM
[6]; dosing of about 1,125 mg leucine, subject weighing about 150 lb
  circulating level of leucine: about 0.5 mM
